Assay results taken from PMC11589458, “Development of bombesin-tubulysin conjugates using multicomponent chemistry to functionalize both the payload and the homing peptide” (Frontiers in Pharmacology, 2024).
Where two headings read alike, the source gives them in different places. Peptide text beside a SMILES is read from it. * marks the point of attachment. X1 = CCCO[C@H](C[C@H](C(C)C)N(CC(=O)NCCC(C)(C)SSCCC(=O)*)C(=O)[C@@H](NC(=O)[C@H]1CCCCN1C)[C@@H](C)CC)c1nc(C(=O)N[C@@H](Cc2ccccc2)C[C@H](C)C(=O)O)cs1; X2 = CCCO[C@H](C[C@H](C(C)C)N(CC(=O)NCCSSCCC(=O)*)C(=O)[C@@H](NC(=O)[C@H]1CCCCN1C)[C@@H](C)CC)c1nc(C(=O)N[C@@H](Cc2ccccc2)C[C@H](C)C(=O)O)cs1

Columns and labels:
[1] = tested on: MCF-10A (non-cancer, healthy breast epithelium) cells; experiment: Resazurin cell viability assay, MCF-10A; format: cell-based, human; conditions: for fold higher IC50 in GRPR-lowest expressing healthy MCF-10A than in higher GRPR-expressing cancer cells: compared with T-47D (20) or T-47D and PC-3 (21); for IC50: MCF-10A
Procedure: (§1) The actual GRPR expression levels of these cell lines were checked by conducting RT-qPCR, as described in the SI. […] The cell viability and proliferation assays were carried out by using a resazurin-based fluorometric assay. The cells were exposed to the bombesin conjugates 20, 21, and 22 for initial 6 h and 48 h, and regardless of the initial incubation time, the cells were then allowed to grow until 72 h in sum were finalized, after which the cell viability was determined (see the SI).
(§2) FIGURE 2 (A) Relative human GRPR (mRNA) expression levels in the cell lines used for the flow cytometry and cell viability studies, as detected by using RT-qPCR (n = 3). Data were analyzed by conducting the ΔΔCt methodology using GAPDH as a reference gene and normalized to the GRPR expression level of non-cancerous MCF-10A breast cells as a “healthy” cell reference (set to 1.0). Statistical significance was tested by using an unpaired t-test (*p < 0.05). (B–D) Cell viability of human cancer (T-47D, PC-3, MDA-MB-231, and HCT-116) and non-cancer (MCF-10A) cell lines after 6 h initial treatment with the bombesin-tubugi conjugates 20 (normal disulfide), 21 (hindered disulfide), and 22 (hindered disulfide and lipidated), medium exchange and subsequent cell cultivation until finalization of 72 h, and subsequent measurement by using fluorometric resazurin assay read-out. For control and data normalization, cells were routinely treated in parallel with 0.5% (v/v) DMSO (negative control), and as a positive cytotoxicity control with 100 µM digitonin (for data normalization set to 0% cell viability), both in standard growth medium. Each data point was determined with 3-4 biological replicates, each with technical triplicates. The indicated concentrations are IC50 values as calculated based on the non-linear regression dose-response curves as drawn by using GraphPad Prism 8 software. Error bars indicate the 95% confidence interval. TEXT PRINTED IN THE PICTURE: (B) 20: T-47D (HR+ breast cancer) 594.2 nM (95% CI: 475.2 - n.d. nM); PC-3 (prostate cancer) 695.3 nM (95% CI: 595.6 - n.d. nM); MDA-MB-231 (TNBC) 626.8 nM (95% CI: 430.4 - n.d. nM); HCT-116 (colon cancer) 1,315 nM (95% CI: n.d. - 6,114 nM); MCF-10A (healthy breast) ~ 3,200 nM (95% CI: n.d.) | (C) 21: T-47D (HR+ breast cancer) 740.9 nM (95% CI: 598.2 - 950.1 nM); PC-3 (prostate cancer) 716.4 nM (95% CI: 529.4 - 997.2 nM); MDA-MB-231 (TNBC) 357.0 nM (95% CI: n.d. - 606.4 nM); HCT-116 (colon cancer) ~ 2,000 nM (95% CI: n.d.); MCF-10A (healthy breast) ~ 4,000 nM (95% CI: n.d.) | (D) 22: T-47D (HR+ breast cancer) 70.9 nM (95% CI: 39.3 - 122.4 nM); PC-3 (prostate cancer) 110.7 nM (95% CI: 66.4 - 116.8 nM); MDA-MB-231 (TNBC) 87.8 nM (95% CI: 83.3 - 148.4 nM)

MDA-MB-231 (TNBC) cells = format: cell-based, human; conditions: 6 h
Procedure: as §1
(§3) FIGURE 2 (A) Relative human GRPR (mRNA) expression levels in the cell lines used for the flow cytometry and cell viability studies, as detected by using RT-qPCR (n = 3). Data were analyzed by conducting the ΔΔCt methodology using GAPDH as a reference gene and normalized to the GRPR expression level of non-cancerous MCF-10A breast cells as a “healthy” cell reference (set to 1.0). Statistical significance was tested by using an unpaired t-test (*p < 0.05). (B–D) Cell viability of human cancer (T-47D, PC-3, MDA-MB-231, and HCT-116) and non-cancer (MCF-10A) cell lines after 6 h initial treatment with the bombesin-tubugi conjugates 20 (normal disulfide), 21 (hindered disulfide), and 22 (hindered disulfide and lipidated), medium exchange and subsequent cell cultivation until finalization of 72 h, and subsequent measurement by using fluorometric resazurin assay read-out. For control and data normalization, cells were routinely treated in parallel with 0.5% (v/v) DMSO (negative control), and as a positive cytotoxicity control with 100 µM digitonin (for data normalization set to 0% cell viability), both in standard growth medium. Each data point was determined with 3-4 biological replicates, each with technical triplicates. The indicated concentrations are IC50 values as calculated based on the non-linear regression dose-response curves as drawn by using GraphPad Prism 8 software. Error bars indicate the 95% confidence interval. TEXT PRINTED IN THE PICTURE: (B) 20: T-47D (HR+ breast cancer) 594.2 nM (95% CI: 475.2 - n.d. nM); PC-3 (prostate cancer) 695.3 nM (95% CI: 595.6 - n.d. nM); MDA-MB-231 (TNBC) 626.8 nM (95% CI: 430.4 - n.d. nM); HCT-116 (colon cancer) 1,315 nM (95% CI: n.d. - 6,114 nM); MCF-10A (healthy breast) ~ 3,200 nM (95% CI: n.d.) | (C) 21: T-47D (HR+ breast cancer) 740.9 nM (95% CI: 598.2 - 950.1 nM); PC-3 (prostate cancer) 716.4 nM (95% CI: 529.4 - 997.2 nM); MDA-MB-231 (TNBC) 357.0 nM (95% CI: n.d. - 606.4 nM); HCT-116 (colon cancer) ~ 2,000 nM (95% CI: n.d.); MCF-10A (healthy breast) ~ 4,000 nM (95% CI: n.d.) | (D) 22: T-47D (HR+ breast cancer) 70.9 nM (95% CI: 39.3 - 122.4 nM); PC-3 (prostate cancer) 110.7 nM (95% CI: 66.4 - 116.8 nM); MDA-MB-231 (TNBC) 87.8 nM (95% CI: 83.3 - 148.4 nM) […]
(§4) Figure S50. Cell viability of human cancer (T-47D, PC-3, MDA-MB-231) and non-cancer (184B5) cell lines after 6 h initial treatment with the bombesin-tubugi conjugate 22 and its non-conjugated tubugi payload 10b, medium exchange and subsequent cell cultivation until finalization of 72 h, and subsequent measurement by using fluorometric resazurin assay read-out. Each data point was determined in at least 3-4 biological replicates each with technical triplicates. The indicated concentrations are IC50 values as calculated based on the non-linear regression dose-response curves as drawn by using GraphPad Prism 8 software. Error bars indicate the 95% confidence interval.
(§5) (1 picture or pasted object on this page, not shown here)

[2] = tested on: HCT-116 (colon cancer) cells; experiment: Resazurin cell viability / anti-proliferation assay, HCT-116; format: cell-based, human; conditions: for fold higher IC50 in GRPR-lower expressing HCT-116 than in higher GRPR-expressing cancer cells: compared with T-47D (20) or T-47D and PC-3 (21); for IC50: HCT-116
Procedure: (§6) [formula] Scheme 1 (A) Solid-phase synthesis of tubugi analogs functionalized with a thiol group at the internal amide N-substituent. WR = Wang resin. (B) Evaluation of the anti-proliferative activity: tubugi effects on cell viability, as determined by a resazurin assay for human prostate cancer PC-3 cells and human colon cancer HCT-116 cells treated for 48 h with tubugi 10a (red dots and line) and tubugi 10b (blue triangles and line). For control and data normalization, cells were routinely treated in parallel with 0.5% (v/v) DMSO (negative control), and as a positive cytotoxicity control with 100 µM digitonin (for data normalization set to 0% cell viability), both in standard growth medium.
as §1, §2

[3] = tested on: PC-3 (prostate cancer) cells; format: cell-based, human; conditions: 6 h
Procedure: as §6, §1
FIGURE 2 (A) Relative human GRPR (mRNA) expression levels in the cell lines used for the flow cytometry and cell viability studies, as detected by using RT-qPCR (n = 3). Data were analyzed by conducting the ΔΔCt methodology using GAPDH as a reference gene and normalized to the GRPR expression level of non-cancerous MCF-10A breast cells as a “healthy” cell reference (set to 1.0). […] (B–D) Cell viability of human cancer (T-47D, PC-3, MDA-MB-231, and HCT-116) and non-cancer (MCF-10A) cell lines after 6 h initial treatment with the bombesin-tubugi conjugates 20 (normal disulfide), 21 (hindered disulfide), and 22 (hindered disulfide and lipidated), medium exchange and subsequent cell cultivation until finalization of 72 h, and subsequent measurement by using fluorometric resazurin assay read-out. […] Each data point was determined with 3-4 biological replicates, each with technical triplicates. […]

[4] = tested on: T-47D (HR+ breast cancer) cells; format: cell-based, human; conditions: 6 h
Procedure: as §1, §3, §4, §5

[5] = Resazurin cell viability assay, the three GRPR-overexpressing cancer cell lines taken together; format: cell-based, human; conditions: 6 h initial treatment; read-out: selectivity: fold higher cytotoxicity for GRPR-overexpressing cells than for healthy 184B5 cells
[6] = tested on: T-47D, PC-3 and MDA-MB-231 cells; experiment: as above; format: cell-based, human; conditions: 6 h initial treatment
[7] = tested on: 184B5 (healthy breast) cells; conditions: 6 h
[8] = 6 h initial treatment, read-out: IC50
[9] = 6 h initial treatment, medium exchange, cultivation until 72 h, fluorometric resazurin read-out, 3-4 biological replicates, technical triplicates, read-out: IC50

## CCCO[C@H](C[C@H](C(C)C)N(CC(=O)NCCSSCCC(=O)NCCCC[C@H](N)C(=O)N[C@@H](CC(N)=O)C(=O)N[C@@H](CCC(N)=O)C(=O)N[C@@H](Cc1c[nH]c2ccccc12)C(=O)N[C@@H](C)C(=O)N[C@H](C(=O)NCC(=O)N[C@@H](Cc1c[nH]cn1)C(=O)N[C@@H](CC(C)C)C(=O)N[C@@H](CCSC)C(N)=O)C(C)C)C(=O)[C@@H](NC(=O)[C@H]1CCCCN1C)[C@@H](C)CC)c1nc(C(=O)N[C@@H](Cc2ccccc2)C[C@H](C)C(=O)O)cs1 [compound 20] (H-K(X2)NQWAVGHLM-NH2)
[1]; 6 h initial treatment
  fold higher IC50 in GRPR-lowest expressing healthy MCF-10A than in higher GRPR-expressing cancer cells: ~5.5 fold
[1]; [8]
  IC50: ~3200 nM
[1]; 48 h initial treatment
  IC50: nanomolar range
MDA-MB-231 (TNBC) cells
  IC50: 627 nM
[2]; 6 h initial treatment
  fold higher IC50 in GRPR-lower expressing HCT-116 than in higher GRPR-expressing cancer cells: approximately 2 fold
[2]; [9]
  IC50: 1320 nM
[2]; [8]
  IC50: ~1300 nM
[2]; 48 h initial treatment
  IC50: nanomolar range
[3]
  IC50: 695 nM

## CCCO[C@H](C[C@H](C(C)C)N(CC(=O)NCCC(C)(C)SSCCC(=O)NCCCC[C@H](N)C(=O)N[C@@H](CC(N)=O)C(=O)N[C@@H](CCC(N)=O)C(=O)N[C@@H](Cc1c[nH]c2ccccc12)C(=O)N[C@@H](C)C(=O)N[C@H](C(=O)NCC(=O)N[C@@H](Cc1c[nH]cn1)C(=O)N[C@@H](CC(C)C)C(=O)N[C@@H](CCSC)C(N)=O)C(C)C)C(=O)[C@@H](NC(=O)[C@H]1CCCCN1C)[C@@H](C)CC)c1nc(C(=O)N[C@@H](Cc2ccccc2)C[C@H](C)C(=O)O)cs1 [compound 21] (H-K(X1)NQWAVGHLM-NH2)
[1]; 6 h initial treatment
  fold higher IC50 in GRPR-lowest expressing healthy MCF-10A than in higher GRPR-expressing cancer cells: ~5.5 fold
[1]; [9]
  IC50: ~4000 nM
[1]; 48 h initial treatment
  IC50: nanomolar range
MDA-MB-231 (TNBC) cells
  IC50: 357 nM
[4]
  IC50: 741 nM
[2]; 6 h initial treatment
  fold higher IC50 in GRPR-lower expressing HCT-116 than in higher GRPR-expressing cancer cells: approximately 2.5 fold
[2]; [9]
  IC50: ~2000 nM
[2]; 48 h initial treatment
  IC50: nanomolar range
[3]
  IC50: 716 nM

## CCCCCCCCCCCCCCNC(=O)CN(CCCC[C@H](N)C(=O)N[C@@H](CC(N)=O)C(=O)N[C@@H](CCC(N)=O)C(=O)N[C@@H](Cc1c[nH]c2ccccc12)C(=O)N[C@@H](C)C(=O)N[C@H](C(=O)NCC(=O)N[C@@H](Cc1c[nH]cn1)C(=O)N[C@@H](CC(C)C)C(=O)N[C@@H](CCSC)C(N)=O)C(C)C)C(=O)CCSSC(C)(C)CCNC(=O)CN(C(=O)[C@@H](NC(=O)[C@H]1CCCCN1C)[C@@H](C)CC)[C@H](C[C@@H](OCCC)c1nc(C(=O)N[C@@H](Cc2ccccc2)C[C@H](C)C(=O)O)cs1)C(C)C [compound 22]
[5]
  selectivity ratio: 3.5 to 5.5
[6]; T-47D, PC-3, MDA-MB-231, read-out: IC50 (range over cell lines)
  IC50: 70 to 110 nM
[6]; three cancer cells overexpressing the GRPR
  fold more potent than the non-lipidated conjugates 20 and 21: 4- to 10 fold
[7]
  IC50: 392 nM
MDA-MB-231 (TNBC) cells
  IC50: 87.8 nM
[4]
  IC50: 70.9 nM
[3]
  IC50: 111 nM
